Here are results for 20 molecules from patent US7750017B2, “Heterocycles” (Bayer Schering Pharma Aktiengesellschaft, priority 2004, dated 2010).

Assay [1] has as its system BT474 [human breast carcinoma, overexpressing HER2 (ErbB2)]. As to the kind of experiment: In vitro tumor cell proliferation assay (Cell Titer-Glo luminescent cell viability), BT474 cells. Format: cell-based. Conditions: BT-474, 72 h, 72 hours of drug exposure, Cell Titer-Glo readout, read-out: IC50, anti-proliferative activity in BT474 cells. An excerpt: (§1) The utility of the compounds of the present invention can be illustrated, for example, by their activity in vitro in the in vitro tumor cell proliferation assay described below. The link between activity in tumor cell proliferation assays in vitro and anti-tumor activity in the clinical setting has been very well established in the art.
(§2) The following assay is one of the methods by which compound activity relating to treatment of the disorders identified herein can be determined.
(§3) The tumor cell proliferation assay used to test the compounds of the present invention involves a readout called Cell Titer-Glow® Luminescent Cell Viability Assay developed by Promega® (Cunningham, B A “A Growing Issue: Cell Proliferation Assays, Modern kits ease quantification of cell growth” The Scientist 2001, 15(13), 26, and Crouch, S P et al., “The use of ATP bioluminescence as a measure of cell proliferation and cytotoxicity” Journal of Immunological Methods 1993, 160, 81-88), that measures inhibition of cell proliferation. Generation of a luminescent signal corresponds to the amount of ATP present, which is directly proportional to the number of metabolically active (proliferating) cells.
(§4) A431 cells [human epidermoid carcinoma, ATCC # […], overexpressing HER1 (EGFR, ErbB1)] and BT474 [human breast carcinoma, ATCC # CRL-1555, overexpressing HER2 (ErbB2)] were plated at a density of 2.5×10^3 cells/well in 96 well black-clear bottom tissue culture plates in RPMI media with 10% Fetal Bovine Serum and incubated at 37° C. Twenty-four hours later, test compounds are added at a final concentration range from as high 100 μm to as low 64 pM depend on the activities of the tested compounds in serial dilutions at a final DMSO concentration of 0.1%. Cells were incubated for 72 hours at 37° C. in complete growth media after addition of the test compound. After 72 hours of drug exposure, the plates were equilibrated to room temperature for approximately 30 min. Then, using a Promega Cell Titer Glo Luminescent® assay kit, lysis buffer containing 100 microliters of the enzyme luciferase and its substrate, luciferin mixture, was added to each well. The plates were mixed for 2 min on orbital shaker to ensure cell lysis and incubated for 10 min at room temperature to stabilize luminescence signal. The samples were read on VICTOR 2 using Luminescence protocol, and analyzed with Analyze5 software to generate IC50 values.

The test system of assay [2] is A431 cells [human epidermoid carcinoma, overexpressing HER1 (EGFR, ErbB1)]. In words: In vitro tumor cell proliferation assay (Cell Titer-Glo luminescent cell viability), A431 cells. Conditions: A-431, 72 h, 72 hours of drug exposure, Cell Titer-Glo readout, read-out: IC50, anti-proliferative activity in A431 cells. Format: cell-based.
Description: as §1, §2, §3, §4

Where a name gives a salt, the structure may show the parent alone. Bounds are passed on as bounds.

On to `Fc1cccc(Cn2ncc3cc(Nc4ncnc5sc6cc(N7CCOCC7)ccc6c45)ccc32)c1` [Example 120, N-[1-(3-fluorobenzyl)-1H-indazol-5-yl]-7-morpholin-4-yl[1] benzothieno[2,3-d]pyrimidin-4-amine], for which the IC50 in assay [1] is ≤ 0.5 µM; in assay [2] it was ≤ 50 µM. Regarding `OCC(O)C(O)c1ccc2c(c1)sc1ncnc(Nc3ccc(OCc4cccc(F)c4)c(Cl)c3)c12` (centres unmarked) [Example 62, 1-[4-({3-chloro-4-[(3-fluorobenzyl)oxy]phenyl}amino)[1]benzothieno[2,3-d]pyrimidin-7-yl]propane-1,2,3-triol], the IC50 in assay [1] is ≤ 0.5 µM; in assay [2], ≤ 5 µM. As for `CN(C)[C@@H]1CCN(C(=O)Cc2ccc3c(c2)sc2ncnc(Nc4ccc(OCc5cscn5)c(Cl)c4)c23)C1` [Example 136, N-[3-chloro-4-(1,3-thiazol-4-ylmethoxy)phenyl]-7-{2-[(3R)-3-(dimethylamino)pyrrolidin-1-yl]-2-oxoethyl}[1]benzothieno[2,3-d] pyrimidin-4-amine], the IC50 in assay [1] is ≤ 0.5 µM; in assay [2], ≤ 5 µM.

Turning to `OC[C@H](O)COc1ccc2c(c1)sc1ncnc(Nc3ccc(OCc4cccc(F)c4)c(Cl)c3)c12` [Example 36, (2S)-3-{[4-({3-chloro-4-[(3-fluorobenzyl)oxy]phenyl}amino)[1]benzothieno[2,3-d]pyrimidin-7-yl]oxy}propane-1,2-diol], the IC50 was ≤ 0.5 µM in assay [1] and ≤ 5 µM in assay [2]. In the case of `O=C(O)Cc1ccc2c(c1)sc1ncnc(Nc3ccc(OCc4ccccn4)c(Cl)c3)c12` [Example 94, (4-{[3-chloro-4-(pyridin-2-ylmethoxy)phenyl]amino}[1]benzothieno[2,3-d]pyrimidin-7-yl)acetic acid], the values for the IC50 in assay [1] and in assay [2] were ≤ 5 µM and ≤ 50 µM, respectively. Consider `O=C(Cc1ccc2c(c1)sc1ncnc(Nc3ccc4c(cnn4Cc4cccc(F)c4)c3)c12)NC1CN2CCC1CC2` (centres unmarked) [Example 123, N-1-azabicyclo[2.2.2]oct-3-yl-2-(4-{[1-(3-fluorobenzyl)-1H-indazol-5-yl]amino}[1]benzothieno [2,3-d]pyrimidin-7-yl)acetamide], for which the IC50 in assay [1] was ≤ 0.5 µM; in assay [2], ≤ 5 µM. In the case of `OC[C@@H](O)COc1ccc2c(c1)sc1ncnc(Nc3ccc(OCc4cccc(F)c4)c(Cl)c3)c12` [Example 147, ((2R)-3-{[4-({3-chloro-4-[(3-fluorobenzyl)oxy]phenyl}amino)[1]benzothieno[2,3-d]pyrimidin-7-yl]oxy}propane-1,2-diol hydrochloride], in assay [1], the IC50 was ≤ 0.5 µM. For the molecule `COC(=O)/C=C/c1ccc2c(c1)sc1ncnc(Nc3ccc(OCc4cccc(F)c4)c(Cl)c3)c12` [Example 47, methyl (2E)-3-[4-({3-chloro-4-[(3-fluorobenzyl)oxy]phenyl}amino)[1]benzothieno[2,3-d]pyrimidin-7-yl]acrylate], the IC50 in assay [1] and in assay [2] was ≤ 5 µM throughout. As for `CCN1CCN(C(=O)[C@H](O)[C@@H](O)c2ccc3c(c2)sc2ncnc(Nc4ccc(OCc5cccc(F)c5)c(Cl)c4)c23)CC1` [Example 57, (1S,2R)-1-[4-({3-chloro-4-[(3-fluorobenzyl)oxy]phenyl}amino) [1]benzothieno[2,3-d]pyrimidin-7-yl]-3-(4-ethylpiperazin-1-yl)-3-oxopropane-1,2-diol], the results for the IC50 in assay [1] and in assay [2] were ≤ 5 µM and ≤ 50 µM, respectively.

As to `Fc1cccc(COc2ccc(Nc3ncnc4sc5cc(CCNCCN6CCOCC6)ccc5c34)cc2Cl)c1` [Example 16, N-{3-chloro-4-[(3-fluorobenzyl)oxy]phenyl}-7-{2-[(2-morpholin-4-ylethyl)amino]ethyl}[1] benzothieno[2,3-d]pyrimidin-4-amine], the IC50 in assay [1] is ≤ 0.5 µM; in assay [2], ≤ 50 µM. With `CN1CCN(C(=O)Cc2ccc3c(c2)sc2ncnc(Nc4ccc(OCc5cscn5)c(Cl)c4)c23)CC1` [Example 138, N-[3-chloro-4-(1,3-thiazol-4-ylmethoxy)phenyl]-7-[2-(4-methylpiperazin-1-yl)-2-oxoethyl][1]benzothieno[2,3-d] pyrimidin-4-amine], the IC50 in assay [1] and in assay [2] was ≤ 5 µM throughout.

For the molecule `O=C(Cc1ccc2c(c1)sc1ncnc(Nc3ccc(OCc4cccc(F)c4)c(Cl)c3)c12)NCC1CCCNC1` (centres unmarked) [Example 33, 2-[4-({3-chloro-4-[(3-fluorobenzyl)oxy]phenyl}amino) [1]benzothieno[2,3-d]pyrimidin-7-yl]-N-(piperidin-3-ylmethyl) acetamide hydrochloride], the figures for the IC50 in assay [1] and in assay [2] were ≤ 0.5 µM and ≤ 50 µM, respectively. The corresponding values for `CCOC(=O)Cc1ccc2c(c1)sc1ncnc(Nc3ccc(OCc4ccccn4)c(Cl)c3)c12` [Example 81, ethyl {4-[3-Chloro-4-(pyridin-2-ylmethoxy)-phenylamino]-benzo [4,5]thieno[2,3-d]pyrimidin-7-yl}-acetate trifluoroacetate] are ≤ 5 µM and ≤ 50 µM. The corresponding values for `CCN1CCN(CCNC(=O)Cc2ccc3c(c2)sc2ncnc(Nc4ccc(OCc5cscn5)c(Cl)c4)c23)CC1` [Example 146, 2-(4-{[3-chloro-4-(1,3-thiazol-4-ylmethoxy)phenyl]amino}[1]benzothieno[2,3-d]pyrimidin-7-yl)-N-[2-(4-ethylpiperazin-1-yl)ethyl] acetamide] are ≤ 0.5 µM and ≤ 50 µM. For `OCC(CO)c1ccc2c(c1)sc1ncnc(Nc3ccc(OCc4cccc(F)c4)c(Cl)c3)c12` [Example 46, 2-{4-[3-Chloro-4-(3-fluoro-benzyloxy)-phenylamino]-benzo[4,5]thieno[2,3-]pyrimidin-7-yl}-propane-1,3-diol], the IC50 in assay [1] was ≤ 0.5 µM; in assay [2], ≤ 5 µM. Regarding `Fc1cccc(Cn2ncc3cc(Nc4ncnc5sc6cc(N7CCNCC7)ccc6c45)ccc32)c1` [Example 119, N-[1-(3-fluorobenzyl)-1H-indazol-5-yl]-7-piperazin-1-yl[1]benzothieno [2,3-d]pyrimidin-4-amine], the IC50 in assay [1] was ≤ 0.5 µM; in assay [2], ≤ 5 µM. In the case of `CS(=O)(=O)CCNC(=O)/C=C/c1ccc2c(c1)sc1ncnc(Nc3ccc(OCc4cccc(F)c4)c(Cl)c3)c12` [Example 53, (2E)-3-[4-({3-chloro-4-[(3-fluorobenzyl)oxy]phenyl}amino) [1]benzothieno[2,3-d]pyrimidin-7-yl]-N-[2-(methylsulfonyl)ethyl]acrylamide], in assay [2], the IC50 was ≤ 50 µM.

In the case of `CN1CCN(CCc2ccc3c(c2)sc2ncnc(Nc4ccc(OCc5ccccn5)c(Cl)c4)c23)CC1` [Example 91], the IC50 in assay [1] was ≤ 0.5 µM. `OC[C@@H](O)COc1ccc2c(c1)sc1ncnc(Nc3ccc(OCc4cccc(F)c4)c(Cl)c3)c12` [Example 35, (2R)-3-{[4-({3-chloro-4-[(3-fluorobenzyl)oxy]phenyl}amino)[1]benzothieno[2,3-d]pyrimidin-7-yl]oxy}propane-1,2-diol]: the IC50 in assay [2] is ≤ 5 µM. Same read-out and setting: the figure for `O=C(/C=C/c1ccc2c(c1)sc1ncnc(Nc3ccc(OCc4cccc(F)c4)c(Cl)c3)c12)N1CCOCC1` [Example 55, N-{3-chloro-4-[(3-fluorobenzyl)oxy]phenyl}-7-[(1E)-3-morpholin-4-yl-3-oxoprop-1-en-1-yl][1]benzothieno[2,3-d] pyrimidin-4-amine trifluoroacetate] is ≤ 5 µM.
